# Results taken from PubChem BioAssay (NCI).
#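 Five concentrations, 48 hours, 96-well plates. The concentration for full growth arrest is given as TGI.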
# Assays:
# Test in all cases: DTP human tumour cell line panel, 48 h
# K-562 leukemia = test system: K-562 leukemia
# SNB-75 CNS = test system: SNB-75 CNS
# HOP-62 NSCLC = test system: HOP-62 NSCLC
# HCT-15 colon = test system: HCT-15 colon
# RXF 393 renal = test system: RXF 393 renal
# MOLT-4 leukemia = test system: MOLT-4 leukemia
# U251 CNS = test system: U251 CNS
# OVCAR-8 ovarian = test system: OVCAR-8 ovarian
# SNB-19 CNS = test system: SNB-19 CNS
# SF-295 CNS = test system: SF-295 CNS
# PC-3 prostate = test system: PC-3 prostate
# LOX IMVI melanoma = test system: LOX IMVI melanoma
# SF-539 CNS = test system: SF-539 CNS
# OVCAR-5 ovarian = test system: OVCAR-5 ovarian
# SK-OV-3 ovarian = test system: SK-OV-3 ovarian
# HOP-92 NSCLC = test system: HOP-92 NSCLC
# OVCAR-3 ovarian = test system: OVCAR-3 ovarian
# RPMI-8226 leukemia = test system: RPMI-8226 leukemia
# A498 renal = test system: A498 renal
# T-47D breast = test system: T-47D breast
SMILES,TGI (K-562 leukemia),TGI (SNB-75 CNS),TGI (HOP-62 NSCLC),TGI (HCT-15 colon),TGI (RXF 393 renal),TGI (MOLT-4 leukemia),TGI (U251 CNS),TGI (OVCAR-8 ovarian),TGI (SNB-19 CNS),TGI (SF-295 CNS),TGI (PC-3 prostate),TGI (LOX IMVI melanoma),TGI (SF-539 CNS),TGI (OVCAR-5 ovarian),TGI (SK-OV-3 ovarian),TGI (HOP-92 NSCLC),TGI (OVCAR-3 ovarian),TGI (RPMI-8226 leukemia),TGI (A498 renal),TGI (T-47D breast)
CC(=O)Oc1c2oc3cc(O)c(O)cc3c2c(OC(C)=O)c2oc3cc(O)c(O)cc3c12,> 100 µM,57.6 µM,35.9 µM,72.3 µM,32.6 µM,> 100 µM,3.44 µM,50.2 µM,94.2 µM,30.3 µM,56.9 µM,> 100 µM,53.3 µM,56.3 µM,59.4 µM,–,–,–,–,–
O=C1/C(=C/c2cccs2)NC(=S)N1CN1CCCC(CO)C1 (configuration not stated),> 100 µM,> 100 µM,> 100 µM,> 100 µM,–,> 100 µM,> 100 µM,> 100 µM,> 100 µM,> 100 µM,> 100 µM,> 100 µM,–,> 100 µM,> 100 µM,> 100 µM,> 100 µM,> 100 µM,> 100 µM,–
COc1ccc(-c2nc(-c3cnccn3)n(COCCO)n2)cc1,> 100 µM,–,> 100 µM,> 100 µM,> 100 µM,> 100 µM,> 100 µM,> 100 µM,> 100 µM,> 100 µM,> 100 µM,> 100 µM,> 100 µM,> 100 µM,> 100 µM,> 100 µM,> 100 µM,> 100 µM,–,> 100 µM
CCC1=NC(C(F)(F)F)(C(F)(F)F)N=C(/N=C(/N)N(C)C(C(C)C)P(=O)(OC(C)C)OC(C)C)O1 (configuration not stated),> 100 µM,> 100 µM,> 100 µM,> 100 µM,> 100 µM,> 100 µM,> 100 µM,> 100 µM,> 100 µM,> 100 µM,> 100 µM,> 100 µM,> 100 µM,> 100 µM,> 100 µM,–,> 100 µM,> 100 µM,> 100 µM,> 100 µM
CCOC(=O)c1[nH]c2nc(SC)nc(Nc3ccccc3Cl)c2c1N,40.5 µM,38.4 µM,41.3 µM,> 100 µM,30.2 µM,30.5 µM,31 µM,36.5 µM,44.5 µM,51.5 µM,37.1 µM,44.8 µM,–,> 100 µM,56.7 µM,–,75.4 µM,43.5 µM,55.9 µM,33.9 µM
CCN(CC)CCNc1ccc(C)c2sc3ccccc3c(=O)c12,6.08 µM,7.68 µM,24.2 µM,8.87 µM,4.73 µM,4.65 µM,5.65 µM,13.3 µM,8.85 µM,5.66 µM,11.2 µM,3.26 µM,8.04 µM,9.59 µM,18.1 µM,–,16.8 µM,4.37 µM,8.05 µM,19.4 µM
BrCC(Br)(c1ccccc1)c1ccccc1-c1cc(-c2ccccc2)cc(-c2ccccc2)n1 (configuration not stated),8.69 µM,4.08 µM,23.2 µM,30 µM,5.92 µM,17.3 µM,5.85 µM,16.7 µM,31.9 µM,8.92 µM,10.6 µM,5.88 µM,19 µM,8.35 µM,–,11.4 µM,–,18.2 µM,15.6 µM,–
O=C(O)CCC(NC(=O)c1ccc(CNc2nc3ccccc3nc2C(=O)O)cc1)C(=O)O (configuration not stated),> 100 µM,> 100 µM,> 100 µM,> 100 µM,–,> 100 µM,> 100 µM,> 100 µM,> 100 µM,> 100 µM,> 100 µM,> 100 µM,–,> 100 µM,> 100 µM,–,> 100 µM,> 100 µM,> 100 µM,–
CC1=CC(C)(C)Nc2ccc(CSc3ccccc3)cc21,> 100 µM,51.3 µM,80 µM,> 100 µM,38.3 µM,–,> 100 µM,> 100 µM,> 100 µM,48.2 µM,89.8 µM,82.3 µM,> 100 µM,40.4 µM,90.1 µM,> 100 µM,39.5 µM,31.2 µM,74.4 µM,–
O=[N+]([O-])c1sc2ccc(Cl)cc2c1Nc1ccc(Cl)cc1,> 100 µM,> 100 µM,> 100 µM,> 100 µM,> 100 µM,> 100 µM,> 100 µM,> 100 µM,> 100 µM,> 100 µM,> 100 µM,> 100 µM,> 100 µM,> 100 µM,> 100 µM,–,> 100 µM,> 100 µM,> 100 µM,> 100 µM
COc1ccc(N2C(=O)/C(=C\c3cccc(Oc4ccccc4)c3)SC2c2ccccc2)cc1 (configuration not stated),> 100 µM,–,> 100 µM,> 100 µM,> 100 µM,74.1 µM,> 100 µM,> 100 µM,> 100 µM,> 100 µM,–,> 100 µM,55.9 µM,> 100 µM,> 100 µM,> 100 µM,> 100 µM,60.9 µM,> 100 µM,> 100 µM
CCCCCCCCCc1c(O)c(O)c(CCCCCCCCC)c(CCCCCCCCC)c1CCCCCCCCC,> 100 µM,–,> 100 µM,> 100 µM,> 100 µM,> 100 µM,> 100 µM,> 100 µM,> 100 µM,> 100 µM,> 100 µM,> 100 µM,> 100 µM,> 100 µM,> 100 µM,–,> 100 µM,> 100 µM,> 100 µM,> 100 µM
O=C1C2ON3c4ccccc4C(=O)C3(c3ccccc3)C2C(=O)N1c1ccccc1 (configuration not stated),> 100 µM,> 100 µM,> 100 µM,> 100 µM,> 100 µM,> 100 µM,> 100 µM,> 100 µM,> 100 µM,> 100 µM,–,–,> 100 µM,–,> 100 µM,> 100 µM,–,> 100 µM,> 100 µM,–
